Reference: patent US9199989B2, “N—(imidazolidin-2-ylidene)quinoline derivatives as modulators of alpha 2 adrenergic receptors” (Allergan, Inc., priority 2011, dated 2015)

Molecular target: T1, Alpha 2C adrenergic receptor (Homo sapiens, UniProt P18825)
T1 construct: expressed in transfected cells
T1 sequence (P18825 1-462): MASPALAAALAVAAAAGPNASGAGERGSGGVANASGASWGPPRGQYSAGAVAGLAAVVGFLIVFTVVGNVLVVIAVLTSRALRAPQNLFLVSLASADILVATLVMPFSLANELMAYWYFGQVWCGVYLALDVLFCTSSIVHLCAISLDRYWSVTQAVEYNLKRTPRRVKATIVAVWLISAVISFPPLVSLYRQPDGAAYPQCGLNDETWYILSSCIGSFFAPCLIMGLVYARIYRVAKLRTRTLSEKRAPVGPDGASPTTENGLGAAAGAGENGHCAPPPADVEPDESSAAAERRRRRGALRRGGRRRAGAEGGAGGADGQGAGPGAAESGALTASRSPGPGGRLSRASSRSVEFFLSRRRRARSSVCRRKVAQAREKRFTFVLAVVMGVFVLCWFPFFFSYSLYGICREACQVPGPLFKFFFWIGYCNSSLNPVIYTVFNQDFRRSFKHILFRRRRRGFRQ
Assay: RSAT (Receptor Selection and Amplification Technology) compound screening
Type: cell-based
Settings: for EC50: cells expressing the alpha 2C adrenergic receptor, receptor-mediated growth response, read-out: Intrinsic Activity EC50, Alpha 2C; for Intrinsic Activity (efficacy), Alpha 2C: relative efficacy compared to a standard full agonist
Protocol: Cells expressing each of the alpha 2 adrenergic receptors alone were incubated with the various compounds and a receptor-mediated growth response was measured. The compound's activity was expressed as its relative efficacy compared to a standard full agonist (see Table 2).

Structure (SMILES) | EC50 [nM] | Intrinsic Activity (efficacy), Alpha 2C
c1ccc2c(N=C3NCCN3)ccnc2c1 [Compound 1, N-(imidazolidin-2-ylidene)quinolin-4-amine] | 17.4 | (0.95)
Cc1c(N=C2NCCN2)cnc2nccnc12 [Compound 7, N-(imidazolidin-2-ylidene)-8-methylpyrido[2,3-b]pyrazin-7-amine] | 311 | (0.93)
Cc1c(N=C2NCCN2)cnc2ccccc12 [Compound 3, N-(imidazolidin-2-ylidene)-4-methylquinolin-3-amine] | 1650 | (0.21)
Clc1c(N=C2NCCN2)cnc2ccccc12 [Compound 4, 4-Chloro-N-(imidazolidin-2-ylidene)quinolin-3-amine] | 368 | (0.66)
c1cnc2ncc(N=C3NCCN3)cc2n1 [Compound 6, N-(imidazolidin-2-ylidene)pyrido[2,3-b]pyrazin-7-amine] | 4580 | (0.44)
Clc1c(N=C2NCCN2)cnc2cccnc12 [Compound 2, 4-Chloro-N-(imidazolidin-2-ylidene)-1,5-naphthyridin-3-amine] | 21 | (0.95)
Brc1c(N=C2NCCN2)cnc2ccccc12 [Compound 5, 4-Bromo-N-(imidazolidin-2-ylidene)quinolin-3-amine] | 1530 | (0.17)
